Assays:
[1] = tested on: type II collagen (COL2A1); assay: Articular chondrocyte pellet, RT-PCR expression of type II collagen; conditions: for Relative expression of Type II collagen (%) (Mean ± SD): no treatment = 100, n=3, peptide as in Example 1 test (25 μM)
Experimental: (§1) In order to ensure that cellular properties of articular chondrocytes are maintained similarly to those of biological tissue, the cells were pelleted and cultured.
Cartilage tissue was prepared from hoof joints of less than 3-year old cows within one hour of being sacrificed at a regional slaughterhouse (located in Ojeong-dong, Daejeon, South Korea). For this purpose, a cartilage portion other than bone was cut using a surgical knife and collected to use. The cartilage tissue was sliced into a hexahedron of about 1 mm long at each side and placed in DMEM/F12 (Welgene) supplemented with Pronase (1 mg/ml, Roche), followed by reaction in a 5% CO2 incubator at 37° C. for 1.5 hours. The Pronase-treated tissue was washed twice with PBS(phosphate buffered saline) and then once with DMEM/F12. The washed cartilage tissue was placed in DMEM/F12 supplemented with 5% FBS (fetal bovine serum) (Invitrogen), Collagenase P (0.25 mg/ml, Roche) and DNase I (20 μg/ml, Sigma) and was allowed to react in a 5% CO2 incubator at 37° C. for 8 to 12 hours, such that the tissue was completely degraded. After the degradation was completed, the cells were collected by centrifugation at 500 xg for 15 minutes and washed twice with PBS. The cells were suspended at a cell density of 2×10^6 cells/ml in DMEM/F12 supplemented with 10% FBS and ascorbate (50 μg/ml, Sigma), and lml/tube of the cells were dispensed into 15 ml conical tubes. The cells were pelleted by centrifugation at 500 xg for 10 minutes and cultured in a 5% CO2 incubator at 37° C. for 2 days, thereby preparing a cell pellet which is solid. The pellet was transferred to a 24-well plate and cultured for 5 days. […] On Day 13, the cells were cultured in serum-free media for 24 hours.
RNA was isolated from the cultured pellet using TRIZOL (Invitrogen) and quantified by absorbance at 260 nm. cDNA was synthesized from 2.25 μg of RNA, using a random hexamer and 5× Reverse Transcriptase Master premix (Elpis Biotech, South Korea). Using 1 μl of synthesized cDNA, amplification was carried out by polymerase chain reaction (PCR) to investigate expression levels of genes. The genes to be investigated are as follows: a gene for chondrocyte-characteristic type II collagen (COL2A1) as a gene for confirming the regeneration of articular cartilage tissue; a gene for matrix metallopeptidase 13 (MMP13) which is over-expressed in damaged cartilage tissue and is involved in the degradation of the matrix, as a gene for confirming whether or not it is capable of preventing additional cartilage damage; and a gene for type X collagen (COL10A1) characteristic to hypertrophic chondrocytes involved in the ossification of articular tissue, as a gene for confirming whether or not it is over-activated and progressed to ossification.
Specifically, PCR was carried out under the following reaction conditions. The PCR reaction employed 1 μl of cDNA, 10 μl of 2× Taq polymerase master mix (Solgent), 0.5 μl of each primer set (10 pmole/μl), and 8 μl of distilled water. PCR amplification consisted of denaturation at 94° C. for 2 minutes, followed by reaction at 94° C. for 30 seconds, at 58° C. for 45 seconds and at 72° C. or 1 minute, with 32 cycles for Type II collagen, Type X collagen and MMP13, and 26 cycles for GAPDH, respectively.

[2] = tested on: damaged cartilage tissue explants (articular chondrocyte explants); assay: Cartilage regeneration in damaged cartilage tissue explants; format: cell-based, cows; conditions: for changes in damaged region of explant (micrograph, FIG. 1): 25 μM peptide
Experimental: Using a syringe (21G) whose tip was truncated and ground, damaged regions were prepared by making vertical holes to the surface uniformly at the center of the explant.
The perforated tissue explants were divided into 4 groups including a control group. […] In addition, the 1-week-incubated tissue explant and the 6-week-incubated tissue explant were fixed, respectively, in a 3.7% formaldehyde/phosphate buffered saline(3.7% formaldehyde/PBS). Then, according to the experimental method of standard histochemistry, paraffin section slides were prepared, followed by hematoxylin & eosin (H&E) staining and microscopic examination of cell shape and distribution in terms of morphology. Collagen was subjected to Masson's trichrome staining, and the shape and distribution of cells in the tissue were examined under a microscope. For comparison, the control group was treated in the same manner as in the group treated with the peptide of Example 1, except that the peptide of Example 1 was not treated.

[3] = tested on: matrix metallopeptidase 13 (MMP13); assay: Articular chondrocyte pellet, RT-PCR expression of MMP13; format: cell-based, cows; conditions: 25 μM peptide; normalized to GAPDH
Experimental: as §1
(§2) Cartilage tissue was prepared from hoof joints of less than 3-year old cows within one hour of being sacrificed at a regional slaughterhouse (located in Ojeong-dong, Daejeon, South Korea). For this purpose, a cartilage portion other than bone was cut using a surgical knife and collected to use. The cartilage tissue was sliced into a hexahedron of about 1 mm long at each side and placed in DMEM/F12 (Welgene) supplemented with Pronase (1 mg/ml, Roche), followed by reaction in a 5% CO2 incubator at 37° C. for 1.5 hours. The Pronase-treated tissue was washed twice with PBS(phosphate buffered saline) and then once with DMEM/F12. The washed cartilage tissue was placed in DMEM/F12 supplemented with 5% FBS (fetal bovine serum) (Invitrogen), Collagenase P (0.25 mg/ml, Roche) and DNase I (20 μg/ml, Sigma) and was allowed to react in a 5% CO2 incubator at 37° C. for 8 to 12 hours, such that the tissue was completely degraded. […]
(§3) RNA was isolated from the cultured pellet using TRIZOL (Invitrogen) and quantified by absorbance at 260 nm. cDNA was synthesized from 2.25 μg of RNA, using a random hexamer and 5× Reverse Transcriptase Master premix (Elpis Biotech, South Korea). […]

[4] = tested on: type X collagen (COL10A1); assay: Articular chondrocyte pellet, RT-PCR expression of type X collagen; format: cell-based, cows; conditions: 25 μM peptide; normalized to GAPDH
Experimental: as §1, §2, §3

[5] = tested on: degenerative arthritis model; assay: Cartilage regeneration in degenerative arthritis model (anterior cruciate ligament excision); format: in vivo, New Zealand white rabbits; conditions: intra-articular cavity injection once a week for 4 weeks
Experimental: As experimental animals, 18 to 22-week-old male New Zealand white rabbits (n=10), weighing 3 to 3.5 kg, were purchased from Orient Bio Inc. (South Korea). The animal experiments were performed in accordance with guidelines of the Institute of Laboratory Animal Resources (ILAR) under approval of Institutional Animal Care and Use Committee of Samsung Biomedical Research Institute (SBRI, Seoul, South Korea). Degeneration of articular cartilage was induced by surgically dissecting the patellar anterior cruciate ligament of rabbits and breeding the animals in a cage for 4 weeks. The animals were divided into a control group and an experimental group.
The rabbits were put under general anesthesia by intramuscularly injecting 2.5 mg/kg of xylazine (Rompun, Bayer) and 8 mg/kg of Tiletamine/Zolazepam (Zoletil, Virbac). Then, the patellar joints of right hind legs of animals were shaved and disinfected. Patellar skins and joint capsules were excised and patellae were displaced to expose anterior cruciate ligaments. Thereafter, the ligament was excised using a razor blade (No. 11) and the joint capsule and skin were sutured. After the surgical operation was completed, the rabbits were raised in a cage for 4 weeks while allowing for routine motion. The animals were housed under the following conditions: temperature of 20 to 25° C. humidity of 10% to 50%, and Light/Dark (L/D) cycle: (light from 08:00 a.m. to 20:00 p.m.). All animals were fed once a day. At Week 4 after the surgical operation, the rabbits were divided into two groups, followed by intra-articular cavity injection. The control group was given an injection of a vehicle (5% lactose/physiological saline). For the experimental group, 200 μl of 52.5 μM peptide solution was injected to the group to which 30 μM of the peptide of Example 1 was administered, and 200 μl of 157.5 μM peptide solution was injected to the group to which 90 μM of the peptide of Example 1 was administered. The above-mentioned peptide was prepared in a solvent of 5% lactose/physiological saline prior to use. An injection was given once a week for 4 weeks. 1 and 5 weeks after the final injection (Week 8 and 12 after the first operation), the experimental animals were euthanized by vascular injection of 1 to 2 mM/kg of KCl under deep anesthesia.
The proximal portion (femoral region) of the patellar articular bone was excised. For the comparison with normal tissue, left normal articular region was also additionally excised, followed by naked-eye examination and photographing. The excised articular regions were fixed in 10% formalin, decalcified by using a decalcifier solution (CalciClear Rapid, National Diagnostics), and then made into paraffin blocks. The frontal plane of articular bone was cut into a thickness of 4 μm, thereby preparing a slide. […]

Substance	Relative expression of Type II collagen (%) (Mean ± SD) [1]	other results
Glu-Leu-Arg-Leu-Glu [Example 6]	158 ± 38%	
Asp-Leu-Lys-Leu-Glu (DLKLE; Artificial peptide sequence prepared by coupling amino acid units one by one from the C-terminal, by Fmoc SPPS (9-flourenlymethyloxycarbonyl solid phase peptide synthesis) using an automated peptide synthesizer.) [Example 10]	166 ± 26%	
Glu-Leu-His-Leu-Asp (ELHLD; Artificial peptide sequence prepared by coupling amino acid units one by one from the C-terminal, by Fmoc SPPS (9-flourenlymethyloxycarbonyl solid phase peptide synthesis) using an automated peptide synthesizer.) [Example 1]	155 ± 12%	damaged region of explant, hematoxylin & eosin staining (FIG. 4) ([2]; 6-week culture, 25 μM peptide and/or 2 ng/ml TGFβ1): the damaged region was narrowed; changes in damaged region of explant (micrograph, FIG. 1) ([2]; after 2 weeks): gradually decreased; changes in damaged region of explant (micrograph, FIG. 1) ([2]; after 4 weeks, with or without 2 ng/ml TGFβ1): cells began to adhere around the damaged region; changes in damaged region of explant (micrograph, FIG. 1) ([2]; after 6 weeks, with or without 2 ng/ml TGFβ1): remarkably reduced; decrease in the expression of MMP13, as compared to the control group [3]: 10%; decrease in the expression of type X collagen (COL10A1), as compared to the control group [4]: 69%; proteoglycan in the cartilage matrix, Safranin O staining (FIG. 10) ([5]; 30 μM and 90 μM): increased synthesis of proteoglycan in a dose-dependent manner; articular cartilage tissue observed by naked eyes (FIG. 8) ([5]; 30 μM, 90 μM): smooth surface and gloss close to the normal state; H&E staining pattern of cartilage tissue (FIG. 9) [5]: staining pattern similar to that of the normal group; cell size in H&E staining (FIG. 9) [5]: increased cell size; increase in the expression of type II collagen, as compared to the control group ([1]; 25 μM peptide, normalized to GAPDH): 55%
Glu-Leu-Lys-Leu-Asp (ELKLD; Artificial peptide sequence prepared by coupling amino acid units one by one from the C-terminal, by Fmoc SPPS (9-flourenlymethyloxycarbonyl solid phase peptide synthesis) using an automated peptide synthesizer.) [Example 3]	161 ± 29%	
Asp-Leu-Arg-Leu-Glu (DLRLE; Artificial peptide sequence prepared by coupling amino acid units one by one from the C-terminal, by Fmoc SPPS (9-flourenlymethyloxycarbonyl solid phase peptide synthesis) using an automated peptide synthesizer.) [Example 12]	159 ± 28%	
Asp-Leu-Arg-Leu-Asp (DLRLD; Artificial peptide sequence prepared by coupling amino acid units one by one from the C-terminal, by Fmoc SPPS (9-flourenlymethyloxycarbonyl solid phase peptide synthesis) using an automated peptide synthesizer.) [Example 11]	157 ± 34%	
Asp-Leu-Lys-Leu-Asp (DLKLD; Artificial peptide sequence prepared by coupling amino acid units one by one from the C-terminal, by Fmoc SPPS (9-flourenlymethyloxycarbonyl solid phase peptide synthesis) using an automated peptide synthesizer.) [Example 9]	147 ± 41%	
Glu-Leu-His-Leu-Glu (ELHLE; Artificial peptide sequence prepared by coupling amino acid units one by one from the C-terminal, by Fmoc SPPS (9-flourenlymethyloxycarbonyl solid phase peptide synthesis) using an automated peptide synthesizer.) [Example 2]	163 ± 19%	
Glu-Leu-Lys-Leu-Glu (ELKLE; Artificial peptide sequence prepared by coupling amino acid units one by one from the C-terminal, by Fmoc SPPS (9-flourenlymethyloxycarbonyl solid phase peptide synthesis) using an automated peptide synthesizer.) [Example 4]	124 ± 12%	
Asp-Leu-His-Leu-Asp (DLHLD; Artificial peptide sequence prepared by coupling amino acid units one by one from the C-terminal, by Fmoc SPPS (9-flourenlymethyloxycarbonyl solid phase peptide synthesis) using an automated peptide synthesizer.) [Example 7]	190 ± 38%	
Glu-Leu-Arg-Leu-Asp (ELRLD; Artificial peptide sequence prepared by coupling amino acid units one by one from the C-terminal, by Fmoc SPPS (9-flourenlymethyloxycarbonyl solid phase peptide synthesis) using an automated peptide synthesizer.) [Example 5]	149 ± 27%	
Asp-Leu-His-Leu-Glu (DLHLE; Artificial peptide sequence prepared by coupling amino acid units one by one from the C-terminal, by Fmoc SPPS (9-flourenlymethyloxycarbonyl solid phase peptide synthesis) using an automated peptide synthesizer.) [Example 8]	115 ± 42%	
